Laboratory results published in patent US11970493B2, “Autotaxin inhibitor compounds” (ILDONG PHARMACEUTICAL CO., LTD., priority 2020, dated 2024).
Counter-ions that a name gives are not always drawn.

Biological target: hATX/ENPP2 (Homo sapiens, UniProt Q13822)
Test: hATX/ENPP2 biochemical assay using 16:0-LPC as substrate (Amplex Red/choline oxidase/HRP fluorescence)
Details: hENPP2 2.5 nM, LPC (16:0) substrate
Protocol: The enzyme is diluted in 50 mM Tris-HCl pH 8.0, 140 mM NaCl, 5 mM CaCl2, 0.01% Triton X-100 in a total volume of 5 μL. The aqueous solution of enzyme is added to the wells and incubated with different concentrations of the compounds at room temperature for 15 min. The reaction is started by the addition of 5 μL of 80 μM LPC (16:0) and 10 μL of the detection mixture containing 200 μM Amplex Red, 10 U/mL choline oxidase and 4 U/mL HRP. Fluorescence at 590 nm was measured kinetically with excitation at 530 nm. The slope of the curve (from 60 to 70 min of the reaction time) was used to calculate the compounds' IC50 values.

| IC50 [nM] | Compound |
| --- | --- |
| 20 to 200 | CCc1nc2ccc(-c3cnc(N4CC(C(=O)NC5CCNCC5)C4)nc3)cn2c1N(C)c1nc(-c2ccc(F)cc2)c(C#N)s1 [71 (hydrochloride salt), 1-(5-(3-((5-cyano-4-(4-fluorophenyl)thiazol-2-yl)(methyl)amino)-2-ethylimidazo[1,2-a]pyridin-6-yl)pyrimidin-2-yl)-N-(piperidin-4-yl) azetidine-3-carboxamide hydrochloride] |
| 20 to 200 | CCc1nc2ccc(-c3cnc(N4CC(NC5(C#N)CC5)C4)nc3)cn2c1N(C)c1nc(-c2ccc(F)cc2)c(C#N)s1 [Compound 28, 2-((6-(2-(3-((1-cyanocyclopropyl)amino)azetidin-1-yl)pyrimidin-5-yl)-2-ethylimidazo[1,2-a]pyridin-3-yl)(methyl)amino)-4-(4-fluorophenyl)thiazole-5-carbonitrile] |
| 20 to 200 | CCc1nc2ccc(-c3cnc(C4CCN(CC(=O)N5CCCC5)CC4)nc3)cn2c1N(C)c1nc(-c2ccc(F)cc2)c(C#N)s1 [Compound 104, 2-((2-ethyl-6-(2-(1-(2-oxo-2-(pyrrolidin-1-yl)ethyl)piperidin-4-yl)pyrimidin-5-yl)imidazo[1,2-a]pyridin-3-yl)(methyl)amino)-4-(4-fluorophenyl)thiazole-5-carbonitrile] |
| 20 to 200 | CCc1nc2ccc(-c3cnc(CC(N)=O)nc3)cn2c1N(C)c1nc(-c2ccc(F)cc2)c(C#N)s1 [Compound 60, 2-(5-(3-((5-cyano-4-(4-fluorophenyl)thiazol-2-yl)(methyl)amino)-2-ethylimidazo[1,2-a]pyridin-6-yl)pyrimidin-2-yl)acetamide] |
| > 200 | CCc1nc2ccc(-c3cnc(NCC4CN(C(=O)C5CNC5)C4)nc3)cn2c1N(C)c1nc(-c2ccc(F)cc2)c(C#N)s1 [Compound 40, 2-((6-(2-(((1-(azetidine-3-carbonyl)azetidin-3-yl)methyl)amino)pyrimidin-5-yl)-2-ethylimidazo[1,2-a]pyridin-3-yl)(methyl)amino)-4-(4-fluorophenyl)thiazole-5-carbonitrile] |
| 20 to 200 | CCc1nc2ccc(-c3cnc(N4CC(NC(=O)[C@@H]5C[C@@H](O)CN5C)C4)nc3)cn2c1N(C)c1nc(-c2ccc(F)cc2)c(C#N)s1 [81 (hydrochloride salt), (2S,4R)—N-(1-(5-(3-((5-cyano-4-(4-fluorophenyl)thiazol-2-yl)(methyl)amino)-2-ethylimidazo[1,2-a]pyridin-6-yl)pyrimidin-2-yl)azetidin-3-yl)-4-hydroxy-1-methyl pyrrolidine-2-carboxamide hydrochloride] |
| ≤ 20 | CCc1nc2ccc(-c3cnc(N4CCC(NC(=O)[C@@H]5C[C@@H](O)CN5)CC4)nc3)cn2c1N(C)c1nc(-c2ccc(F)cc2)c(C#N)s1 [Compound 77, (2S,4R)—N-(1-(5-(3-((5-cyano-4-(4-fluorophenyl)thiazol-2-yl)(methyl)amino)-2-ethylimidazo[1,2-a]pyridin-6-yl)pyrimidin-2-yl)piperidin-4-yl)-4-hydroxypyrrolidine-2-carboxamide] |
| 20 to 200 | CCc1nc2ccc(-c3cnc(CC(=O)NC4CCNCC4)nc3)cn2c1N(C)c1nc(-c2ccc(F)cc2)c(C#N)s1 [Compound 65, 2-(5-(3-((5-cyano-4-(4-fluorophenyl)thiazol-2-yl)(methyl)amino)-2-ethylimidazo [1,2-a]pyridin-6-yl)pyrimidin-2-yl)-N-(piperidin-4-yl)acetamide] |
| 20 to 200 | CCc1nc2ccc(-c3cnc(CC(=O)N4CC[C@H](O)C4)nc3)cn2c1N(C)c1nc(-c2ccc(F)cc2)c(C#N)s1 [Compound 55, (S)-2-((2-ethyl-6-(2-(2-(3-hydroxypyrrolidin-1-yl)-2-oxoethyl)pyrimidin-5-yl)imidazo[1,2-a]pyridin-3-yl)(methyl)amino)-4-(4-fluorophenyl)thiazole-5-carbonitrile] |
| ≤ 20 | CCc1nc2ccc(-c3cnc(N4CC(C(=O)NC5(CO)CC5)C4)nc3)cn2c1N(C)c1nc(-c2ccc(F)cc2)c(C#N)s1 [Compound 33, 1-(5-(3-((5-cyano-4-(4-fluorophenyl)thiazol-2-yl)(methyl)amino)-2-ethylimidazo[1,2-a]pyridin-6-yl)pyrimidin-2-yl)-N-(1-(hydroxylmethyl)cyclopropyl)azetidine-3-carboxamide] |
| 20 to 200 | CCc1nc2ccc(-c3cnc(CC(=O)N4CC[C@@H](O)C4)nc3)cn2c1N(C)c1nc(-c2ccc(F)cc2)c(C#N)s1 [Compound 56, (R)-2-((2-ethyl-6-(2-(2-(3-hydroxypyrrolidin-1-yl)-2-oxoethyl)pyrimidin-5-yl)imidazo[1,2-a]pyridin-3-yl)(methyl)amino)-4-(4-fluorophenyl)thiazole-5-carbonitrile] |
| ≤ 20 | CCc1nc2ccc(-c3ccc(N4CCC(NC5CCNCC5)CC4)nc3)cn2c1N(C)c1nc(-c2ccc(F)cc2)c(C#N)s1 [Compound 90, 2-((2-ethyl-6-(6-(4-(piperidin-4-ylamino)piperidin-1-yl)pyridin-3-yl)imidazo[1,2-a]pyridin-3-yl)(methyl)amino)-4-(4-fluorophenyl)thiazole-5-carbonitrile] |
| 20 to 200 | CCc1nc2ccc(-c3cnc(C(=O)N4CC(NC5CC5)C4)nc3)cn2c1N(C)c1nc(-c2ccc(F)cc2)c(C#N)s1 [Compound 12, 2-((6-(2-(3-(cyclopropylamino)azetidine-1-carbonyl)pyrimidin-5-yl)-2-ethylimidazo[1,2-a]pyridin-3-yl)(methyl)amino)-4-(4-fluorophenyl)thiazole-5-carbonitrile] |
| 20 to 200 | CCc1nc2ccc(-c3ccc(N4CC(C(=O)NC5(CO)CC5)C4)nc3)cn2c1N(C)c1nc(-c2ccc(F)cc2)c(C#N)s1 [Compound 97, 1-(5-(3-((5-cyano-4-(4-fluorophenyl)thiazol-2-yl)(methyl)amino)-2-ethylimidazo[1,2-a]pyridin-6-yl)pyridin-2-yl)-N-(1-(hydroxymethyl)cyclopropyl)azetidine-3-carboxamide] |
| 20 to 200 | CCc1nc2ccc(-c3cnc(C(=O)N4CC(O)C4)nc3)cn2c1N(C)c1nc(-c2ccc(F)cc2)c(C#N)s1 [Compound 11, 2-((2-ethyl-6-(2-(3-hydroxyazetidine-1-carbonyl)pyrimidin-5-yl)imidazo[1,2-a]pyridin-3-yl)(methyl)amino)-4-(4-fluorophenyl)thiazole-5-carbonitrile] |
| 20 to 200 | CCc1nc2ccc(-c3cnc(NC4CN(C(=O)C5(O)CC5)C4)nc3)cn2c1N(C)c1nc(-c2ccc(F)cc2)c(C#N)s1 [Compound 35, 2-((2-ethyl-6-(2-((1-(1-hydroxycyclopropane-1-carbonyl)azetidin-3-yl)amino)pyrimidin-5-yl)imidazo[1,2-a]pyridin-3-yl) (methyl)amino)-4-(4-fluorophenyl)thiazole-5-carbonitrile] |
| 20 to 200 | CCc1nc2ccc(-c3cnc(C4CCN(C(=O)N5CCCC5)CC4)nc3)cn2c1N(C)c1nc(-c2ccc(F)cc2)c(C#N)s1 [Compound 102, 2-((2-ethyl-6-(2-(1-(pyrrolidine-1-carbonyl)piperidin-4-yl)pyrimidin-5-yl)imidazo[1,2-a]pyridin-3-yl)(methyl)amino)-4-(4-fluorophenyl)thiazole-5-carbonitrile] |
